Active and inactive are the calls of the source. No cut-off for these calls is given here.
Legend:
Homo sapiens [1] = species: Homo sapiens; test: Induction of CIP2A protein degradation in human PLC5 cells incubated for 4 to 24 hrs; type: functional, cell-based
Hep 3B2 [2] = test: Inhibition of PP2A-B5 protein expression in human Hep3B cells at 1 uM incubated for 24 hrs by Western blotting analysis; type: functional, cell-based
[3] = biological target: T1, Serine/threonine-protein kinase AKT (Homo sapiens) (UniProt P31751+Q9Y243+P31749); test: Inhibition of Akt phosphorylation at S473 residue in human PLC5 cells at 2 uM incubated for 24 hrs in presence of 100 nM PP2A inhibitor okadaic acid by Western blotting analysis; type: cell-based
[4] = biological target: T1, Serine/threonine-protein kinase AKT (Homo sapiens); test: Inhibition of Akt phosphorylation at S473 residue in human HA22T cells at 1 uM by Western blotting analysis; type: cell-based; details: TDE = time-dependent effect
Homo sapiens [5] = species: Homo sapiens; test: Induction of apoptosis in human PLC5 cells with ectopic over expression of myc-tagged CIP2A at 2 uM incubated for 24 hrs by annexin-V-FITC staining based by flow cytometry; type: functional, cell-based
HA22T cell line [6] = test: Inhibition of CIP2A protein expression in human HA22T cells by Western blotting analysis; type: functional, cell-based
Homo sapiens [7] = species: Homo sapiens; test: Inhibition of human CIP2A gene promoter -110/-1 mutant construct activity in human PLC5 cells by luciferase reporter gene assay; type: cell-based
SK-HEP1 [8] = test: Inhibition of CIP2A protein expression in human SKHEP1 cells assessed as CIP2A protein expression ratio level at 1uM by Western blotting analysis (Rvb =1); type: functional
Hep 3B2 [9] = test: Inhibition of PP2A-C protein expression in human Hep3B cells at 1 uM incubated for 24 hrs by Western blotting analysis; type: functional, cell-based
Hep 3B2 [10] = test: Induction of apoptosis in human Hep3B cells assessed as induction of PARP cleavage at 0.5 to 4 uM incubated for 48 hrs by Western blotting analysis; type: functional, cell-based
[11] = biological target: T1, Serine/threonine-protein kinase AKT (Homo sapiens); test: Inhibition of Akt phosphorylation at S473 residue in human SKHEP1 cells by Western blotting analysis; type: cell-based
Hep 3B2 [12] = test: Inhibition of CIP2A protein expression in human Hep3B cells assessed as CIP2A protein expression ratio level at 1 uM by Western blotting analysis (Rvb =1); type: functional
SK-HEP1 [13] = test: Inhibition of CIP2A protein expression in human SKHEP1 cells by Western blotting analysis; type: functional, cell-based
SK-HEP1 [14] = test: Inhibition of CIP2A protein expression in human SKHEP1 cells assessed as CIP2A protein expression ratio level at 2 uM by Western blotting analysis (Rvb =1); type: functional
Homo sapiens [15] = species: Homo sapiens; test: Inhibition of CIP2A protein expression in human PLC5 cells by Western blotting analysis; type: functional, cell-based
Homo sapiens [16] = species: Homo sapiens; test: Inhibition of ELK1 protein expression in human PLC5 cells at 2 uM by Western blotting analysis; type: functional, cell-based
Homo sapiens [17] = species: Homo sapiens; test: Induction of apoptosis in human PLC5 cells assessed as induction of DNA fragmentation at 1 uM incubated for 24 hrs by ELISA; type: functional, cell-based
SK-HEP1 [18] = test: Induction of apoptosis in human SKHEP1 cells assessed as caspase-9 activation at 0.5 to 4 uM incubated for 48 hrs by Western blotting analysis; type: functional, cell-based
[19] = Inhibition of CIP2A protein expression in human PLC5 cells assessed as CIP2A protein expression ratio level at 4 uM by Western blotting analysis (Rvb =1); type: functional
HA22T cell line [20] = test: Inhibition of CIP2A protein expression in human HA22T cells assessed as CIP2A protein expression ratio level at 2 uM by Western blotting analysis (Rvb =1); type: functional
HA22T cell line [21] = test: Induction of apoptosis in human HA22T cells assessed as induction of PARP cleavage at 0.5 to 4 uM incubated for 48 hrs by Western blotting analysis; type: functional, cell-based
Homo sapiens [22] = species: Homo sapiens; test: Induction of apoptosis in human PLC5 cells at 2 uM incubated for 24 hrs in presence of PP2A-C siRNA by annexin-V-FITC staining based by flow cytometry; type: functional, cell-based
Homo sapiens [23] = species: Homo sapiens; test: Induction of apoptosis in human PLC5 cells assessed as induction of PARP cleavage at 2 uM in presence of caspase inhibitor Z-VAD-fmk incubated for 48 hrs by Western blotting analysis; type: functional, cell-based
SK-HEP1 [24] = test: Induction of apoptosis in human SKHEP1 cells assessed as caspase-3 activation at 0.5 to 4 uM incubated for 48 hrs by Western blotting analysis; type: functional, cell-based
Homo sapiens [25] = species: Homo sapiens; test: Induction of apoptosis in human PLC5 cells assessed as accumulation at subG1 phase at 0.5 to 4 uM by flow cytometry; type: functional, cell-based
Hep 3B2 [26] = test: Inhibition of PP2A-A protein expression in human Hep3B cells at 1 uM incubated for 24 hrs by Western blotting analysis; type: functional, cell-based
Homo sapiens [27] = species: Homo sapiens; test: Inhibition of human CIP2A gene promoter in human PLC5 cells with ectopic overexpression of GFP-tagged Elk-1 assessed as inhibition of ELK1 protein expression at 2 uM by Western blotting analysis; type: cell-based
Hep 3B2 [28] = test: Induction of apoptosis in human Hep3B cells assessed as caspase-9 activation at 0.5 to 4 uM incubated for 48 hrs by Western blotting analysis; type: functional, cell-based
Homo sapiens [29] = species: Homo sapiens; test: Inhibition of His-tagged recombinant human SET1 protein (1 to 290 amino acids) expressed in Escherichia coli interaction with N-terminal GST-tagged recombinant human PP2A-C (1 to 309 amino acids) assessed as minimal concentration causing disruption of SET-PP2Ac binding by SPR assay
HA22T cell line [30] = test: Inhibition of PP2A-C protein expression in human HA22T cells at 1 uM incubated for 24 hrs by Western blotting analysis; type: functional, cell-based
Hep 3B2 [31] = test: Induction of apoptosis in human Hep3B cells assessed as induction of DNA fragmentation at 1 uM incubated for 24 hrs by ELISA; type: functional, cell-based
HA22T cell line [32] = test: Induction of apoptosis in human HA22T cells >= 2 uM incubated for 48 hrs by annexin-V-FITC staining based by flow cytometry relative to control; type: functional
Hep 3B2 [33] = test: Induction of apoptosis in human Hep3B cells assessed as induction of PARP cleavage at 2 uM in presence of caspase inhibitor Z-VAD-fmk incubated for 48 hrs by Western blotting analysis; type: functional, cell-based
Homo sapiens [34] = species: Homo sapiens; test: Inhibition of CIP2A mRNA expression in human PLC5 cells at 1 to 4 uM by RT-PCR analysis; type: functional, cell-based
[35] = biological target: T1, Serine/threonine-protein kinase AKT (Homo sapiens); test: Inhibition of Akt phosphorylation at S473 residue in human PLC5 cells by Western blotting analysis; type: cell-based
Hep 3B2 [36] = test: Induction of apoptosis in human Hep3B cells at 2 uM in presence of caspase inhibitor Z-VAD-fmk incubated for 48 hrs by annexin-V-FITC staining based by flow cytometry; type: functional, cell-based
SK-HEP1 [37] = test: Inhibition of PP2A-C protein expression in human SKHEP1 cells at 1 uM incubated for 24 hrs by Western blotting analysis; type: functional, cell-based
SK-HEP1 [38] = test: Induction of necrosis in human SKHEP1 cells >= 2 uM incubated for 48 hrs by annexin-V-FITC staining based by flow cytometry relative to control; type: functional
HA22T cell line [39] = test: Inhibition of CIP2A protein expression in human HA22T cells assessed as CIP2A protein expression ratio level at 0.5 uM by Western blotting analysis (Rvb =1); type: functional
Hep 3B2 [40] = test: Inhibition of CIP2A protein expression in human Hep3B cells assessed as CIP2A protein expression ratio level at 0.5 uM by Western blotting analysis (Rvb =1); type: functional

T1 sequence (P31749 whole entry, looked up): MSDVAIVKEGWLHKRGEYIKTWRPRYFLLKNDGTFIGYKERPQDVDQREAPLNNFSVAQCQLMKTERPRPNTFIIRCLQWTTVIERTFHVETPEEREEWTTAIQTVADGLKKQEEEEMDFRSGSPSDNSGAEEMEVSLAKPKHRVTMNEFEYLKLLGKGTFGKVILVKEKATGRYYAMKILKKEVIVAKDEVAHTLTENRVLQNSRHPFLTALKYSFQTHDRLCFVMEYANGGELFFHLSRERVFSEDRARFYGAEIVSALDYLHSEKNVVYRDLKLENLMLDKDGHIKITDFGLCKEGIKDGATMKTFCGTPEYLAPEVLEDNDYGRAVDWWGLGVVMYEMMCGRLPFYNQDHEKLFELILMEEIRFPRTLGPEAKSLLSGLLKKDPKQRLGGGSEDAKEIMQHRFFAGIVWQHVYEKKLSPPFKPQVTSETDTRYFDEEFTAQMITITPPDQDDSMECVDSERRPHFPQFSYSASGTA
T1 sequence (P31751 whole entry, looked up): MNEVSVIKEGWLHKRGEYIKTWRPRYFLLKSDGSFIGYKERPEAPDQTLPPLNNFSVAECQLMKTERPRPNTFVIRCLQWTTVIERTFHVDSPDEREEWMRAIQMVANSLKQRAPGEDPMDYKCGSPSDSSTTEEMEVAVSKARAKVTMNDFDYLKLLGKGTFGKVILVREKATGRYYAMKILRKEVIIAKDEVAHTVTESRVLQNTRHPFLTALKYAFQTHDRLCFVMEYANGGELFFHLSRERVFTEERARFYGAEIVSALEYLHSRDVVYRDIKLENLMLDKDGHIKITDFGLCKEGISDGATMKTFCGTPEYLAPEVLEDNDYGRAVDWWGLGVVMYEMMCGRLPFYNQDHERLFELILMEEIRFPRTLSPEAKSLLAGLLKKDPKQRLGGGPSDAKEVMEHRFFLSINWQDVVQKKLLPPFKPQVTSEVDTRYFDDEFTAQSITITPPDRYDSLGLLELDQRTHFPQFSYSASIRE
T1 sequence (Q9Y243 whole entry, looked up): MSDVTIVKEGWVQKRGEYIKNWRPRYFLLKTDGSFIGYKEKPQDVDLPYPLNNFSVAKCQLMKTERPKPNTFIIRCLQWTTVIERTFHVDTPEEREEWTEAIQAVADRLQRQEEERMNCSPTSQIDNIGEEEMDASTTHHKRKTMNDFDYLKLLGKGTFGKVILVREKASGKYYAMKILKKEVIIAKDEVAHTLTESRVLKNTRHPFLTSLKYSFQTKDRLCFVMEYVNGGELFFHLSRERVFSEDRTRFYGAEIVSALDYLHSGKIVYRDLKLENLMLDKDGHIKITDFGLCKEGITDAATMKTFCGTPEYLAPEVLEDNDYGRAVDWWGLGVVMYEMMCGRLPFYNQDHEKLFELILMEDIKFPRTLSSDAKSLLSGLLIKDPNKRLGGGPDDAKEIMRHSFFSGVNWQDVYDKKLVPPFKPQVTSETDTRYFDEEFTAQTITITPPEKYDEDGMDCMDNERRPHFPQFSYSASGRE

**Q.** Which Activity (Homo sapiens [1]) does the source give for C#Cc1cccc(Nc2nc3ccccc3nc2Nc2cccc(C#C)c2)c1 here?
**A.** inactive

**Q.** What about the inhibition (Hep 3B2 [2]) of the same compound?
**A.** inactive

**Q.** And the inhibition [3]?
**A.** inactive

**Q.** What about the inhibition [4] of the same compound?
**A.** Tde

**Q.** And the Activity (Homo sapiens [5])?
**A.** inactive

**Q.** And the inhibition (HA22T cell line [6])?
**A.** Dose-dependent effect

**Q.** What about the inhibition (Homo sapiens [7]) of the same compound?
**A.** inactive

**Q.** And the Ratio (SK-HEP1 [8])?
**A.** 0.32

**Q.** And the inhibition (Hep 3B2 [9])?
**A.** inactive

**Q.** What about the Activity (Hep 3B2 [10]) of the same compound?
**A.** Dose-dependent effect

**Q.** What about the inhibition [11] of the same compound?
**A.** Dose-dependent effect

**Q.** What about the Ratio (Hep 3B2 [12]) of the same compound?
**A.** 0.57

**Q.** And the inhibition (SK-HEP1 [13])?
**A.** Dose-dependent effect

**Q.** What about the Ratio (SK-HEP1 [14]) of the same compound?
**A.** 0.21

**Q.** What about the inhibition (Homo sapiens [15]) of the same compound?
**A.** Dose-dependent effect

**Q.** And the inhibition (Homo sapiens [16])?
**A.** inactive

**Q.** And the Activity (Homo sapiens [17])?
**A.** Active

**Q.** And the Activity (SK-HEP1 [18])?
**A.** Dose-dependent effect

**Q.** What about the Ratio [19] of the same compound?
**A.** 0.01

**Q.** And the Ratio (HA22T cell line [20])?
**A.** 0.36

**Q.** What about the Activity (HA22T cell line [21]) of the same compound?
**A.** Dose-dependent effect

**Q.** And the Activity (Homo sapiens [22])?
**A.** inactive

**Q.** What about the Activity (Homo sapiens [23]) of the same compound?
**A.** inactive

**Q.** What about the Activity (SK-HEP1 [24]) of the same compound?
**A.** Dose-dependent effect

**Q.** What about the Activity (Homo sapiens [25]) of the same compound?
**A.** Active

**Q.** And the inhibition (Hep 3B2 [26])?
**A.** inactive

**Q.** And the inhibition (Homo sapiens [27])?
**A.** inactive

**Q.** What about the Activity (Hep 3B2 [28]) of the same compound?
**A.** Dose-dependent effect

**Q.** And the MEC (Homo sapiens [29])?
**A.** 100 to 200 nM

**Q.** What about the inhibition (HA22T cell line [30]) of the same compound?
**A.** inactive

**Q.** What about the Activity (Hep 3B2 [31]) of the same compound?
**A.** Active

**Q.** What about the Activity (HA22T cell line [32]) of the same compound?
**A.** 50%

**Q.** What about the Activity (Hep 3B2 [33]) of the same compound?
**A.** inactive

**Q.** And the inhibition (Homo sapiens [34])?
**A.** Active

**Q.** What about the inhibition [35] of the same compound?
**A.** Dose-dependent effect

**Q.** And the Activity (Hep 3B2 [36])?
**A.** inactive

**Q.** And the inhibition (SK-HEP1 [37])?
**A.** inactive

**Q.** And the Activity (SK-HEP1 [38])?
**A.** 50%

**Q.** What about the Ratio (HA22T cell line [39]) of the same compound?
**A.** 0.99

**Q.** And the Ratio (Hep 3B2 [40])?
**A.** 0.87

— ChEMBL document CHEMBL4420066, “Aryl amine substituted quinoxaline used as anticancer drugs” (2017)
